From ChEMBL document CHEMBL1201862, “PubChem BioAssay data set” (2004)
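Where inhibition never reached the appropriate level, the endpoint shown equals the highest concentration tested. Otherwise, values were interpolated linearly from a five-concentration, 48-hour dose response in 96-well plates. At the GI50, growth is halved.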 Calls of active or inactive are those of the source. Rule as the data show it: active = GI50 up to about 1.1 µM and inactive = higher.

What was measured:
Experiment in all cases: NCI-60 cell line screen, 48 h
OVCAR-4 = tested on: OVCAR-4
ACHN = tested on: ACHN
A498 = tested on: A498
786-0 = tested on: 786-0
KM12 = tested on: KM12
SNB-78 = tested on: SNB-78
IGROV-1 = tested on: IGROV-1
K562 = tested on: K562
LXFL 529 = tested on: LXFL 529
SK-MEL-2 = tested on: SK-MEL-2
EKVX = tested on: EKVX
SF-268 = tested on: SF-268
SK-MEL-5 = tested on: SK-MEL-5
CAKI-1 = tested on: CAKI-1
UACC-257 = tested on: UACC-257
SF-295 = tested on: SF-295
OVCAR-5 = tested on: OVCAR-5
U-251 = tested on: U-251
SK-OV-3 = tested on: SK-OV-3
UO-31 = tested on: UO-31
COLO 205 = tested on: COLO 205
SN12C = tested on: SN12C
OVCAR-3 = tested on: OVCAR-3
SR = tested on: SR
MOLT-4 = tested on: MOLT-4
HCT-116 = tested on: HCT-116
A549 = tested on: A549
Malme-3M = tested on: Malme-3M
NCI-H522 = tested on: NCI-H522
SF-539 = tested on: SF-539
M19-MEL = tested on: M19-MEL
HOP-62 = tested on: HOP-62
HT-29 = tested on: HT-29
CCRF-CEM = tested on: CCRF-CEM
SW-620 = tested on: SW-620
NCI-H226 = tested on: NCI-H226
OVCAR-8 = tested on: OVCAR-8
HCT-15 = tested on: HCT-15
DLD-1 = tested on: DLD-1
SK-MEL-28 = tested on: SK-MEL-28
HOP-92 = tested on: HOP-92
DMS-114 = tested on: DMS-114
LOX IMVI = tested on: LOX IMVI
SNB-19 = tested on: SNB-19
UACC-62 = tested on: UACC-62
HCC 2998 = tested on: HCC 2998
NCI-H460 = tested on: NCI-H460
NCI-H23 = tested on: NCI-H23
RPMI-8226 = tested on: RPMI-8226
RXF 393 = tested on: RXF 393
M14 = tested on: M14
DMS-273 = tested on: DMS-273
XF498 = tested on: XF498
KM-20L2 = tested on: KM-20L2
TK-10 = tested on: TK-10
SNB-75 = tested on: SNB-75
HL-60 = tested on: HL-60

`N#Cc1cc([N+](=O)[O-])ccc1NC(=O)/C(=N/N)C(C(=O)c1ccc(Cl)c(Cl)c1)C1OC(=O)c2ccccc21` (configuration not stated) was tested, and the GI50 (OVCAR-4) was 30.8 µM (inactive), the GI50 (ACHN) was 36.6 µM (inactive) and the GI50 (A498) was 29.4 µM (inactive). The GI50 (786-0) was 59.3 µM (inactive), the GI50 (KM12) was 58.1 µM (inactive) and the GI50 (SNB-78) was 75 µM (inactive). For the same compound, the GI50 (IGROV-1) was > 100 µM (inactive), the GI50 (K562) was 24.3 µM (inactive) and the GI50 (LXFL 529) was 43 µM (inactive). For the same compound, the GI50 (SK-MEL-2) was 72.3 µM (inactive), the GI50 (EKVX) was 45 µM (inactive) and the GI50 (SF-268) was 59.8 µM (inactive). The GI50 (SK-MEL-5) was 63.7 µM (inactive), the GI50 (CAKI-1) was 38.1 µM (inactive) and the GI50 (UACC-257) was 84.7 µM (inactive). For the same compound, the GI50 (SF-295) was 26.4 µM (inactive), the GI50 (OVCAR-5) was 47.2 µM (inactive) and the GI50 (U-251) was 42.9 µM (inactive). The GI50 (SK-OV-3) was > 100 µM (inactive), the GI50 (UO-31) was 49.9 µM (inactive) and the GI50 (COLO 205) was > 100 µM (inactive). For the same compound, the GI50 (SN12C) was 90.8 µM (inactive), the GI50 (OVCAR-3) was 90.8 µM (inactive) and the GI50 (SR) was 54.2 µM (inactive). For the same compound, the GI50 (MOLT-4) was 36.8 µM (inactive), the GI50 (HCT-116) was 39.1 µM (inactive) and the GI50 (A549) was 23.7 µM (inactive). The GI50 (Malme-3M) was > 100 µM (inactive), the GI50 (NCI-H522) was 26.1 µM (inactive) and the GI50 (SF-539) was 67.5 µM (inactive). The GI50 (M19-MEL) was 26.9 µM (inactive), the GI50 (HOP-62) was 54.6 µM (inactive) and the GI50 (HT-29) was 81.3 µM (inactive). For the same compound, the GI50 (CCRF-CEM) was 38.9 µM (inactive), the GI50 (SW-620) was 95.7 µM (inactive) and the GI50 (NCI-H226) was 16.3 µM (inactive). The GI50 (OVCAR-8) was 28.1 µM (inactive), the GI50 (HCT-15) was 42.2 µM and the GI50 (DLD-1) was 35 µM (inactive). For the same compound, the GI50 (SK-MEL-28) was 35.6 µM (inactive), the GI50 (HOP-92) was 8.81 µM (inactive) and the GI50 (DMS-114) was 28.4 µM (inactive). The GI50 (LOX IMVI) was 21.7 µM (inactive), the GI50 (SNB-19) was 69.3 µM (inactive) and the GI50 (UACC-62) was 31 µM (inactive). For the same compound, the GI50 (HCC 2998) was 65.9 µM (inactive), the GI50 (NCI-H460) was 35.8 µM (inactive) and the GI50 (NCI-H23) was 25.1 µM (inactive). For the same compound, the GI50 (RPMI-8226) was 46.1 µM (inactive) and the GI50 (RXF 393) was 19.5 µM (inactive).

With `COc1ccc(O)c(C#N)c1C#N` the GI50 (OVCAR-4) was > 100 µM (inactive), the GI50 (ACHN) was > 100 µM (inactive) and the GI50 (A498) was > 100 µM (inactive). The GI50 (786-0) was > 100 µM (inactive), the GI50 (KM12) was > 100 µM (inactive) and the GI50 (SNB-78) was > 100 µM (inactive). For the same compound, the GI50 (IGROV-1) was > 100 µM (inactive), the GI50 (K562) was > 100 µM (inactive) and the GI50 (LXFL 529) was > 100 µM (inactive). The GI50 (SK-MEL-2) was > 100 µM (inactive), the GI50 (EKVX) was > 100 µM (inactive) and the GI50 (SF-268) was > 100 µM (inactive). For the same compound, the GI50 (SK-MEL-5) was > 100 µM (inactive), the GI50 (CAKI-1) was > 100 µM (inactive) and the GI50 (UACC-257) was > 100 µM (inactive). For the same compound, the GI50 (SF-295) was > 100 µM (inactive), the GI50 (OVCAR-5) was > 100 µM (inactive) and the GI50 (U-251) was > 100 µM (inactive). For the same compound, the GI50 (SK-OV-3) was > 100 µM (inactive), the GI50 (UO-31) was > 100 µM (inactive) and the GI50 (COLO 205) was > 100 µM (inactive). The GI50 (M14) was > 100 µM (inactive), the GI50 (DMS-273) was > 100 µM (inactive) and the GI50 (SN12C) was > 100 µM (inactive). The GI50 (OVCAR-3) was > 100 µM (inactive), the GI50 (MOLT-4) was > 100 µM (inactive) and the GI50 (HCT-116) was > 100 µM (inactive). The GI50 (A549) was > 100 µM (inactive), the GI50 (Malme-3M) was > 100 µM (inactive) and the GI50 (XF498) was > 100 µM (inactive). The GI50 (NCI-H522) was > 100 µM (inactive), the GI50 (SF-539) was > 100 µM (inactive) and the GI50 (KM-20L2) was > 100 µM (inactive). For the same compound, the GI50 (M19-MEL) was > 100 µM (inactive), the GI50 (HOP-62) was > 100 µM (inactive) and the GI50 (HT-29) was > 100 µM (inactive). For the same compound, the GI50 (CCRF-CEM) was > 100 µM (inactive), the GI50 (SW-620) was > 100 µM (inactive) and the GI50 (NCI-H226) was > 100 µM (inactive). The GI50 (TK-10) was > 100 µM (inactive), the GI50 (OVCAR-8) was > 100 µM (inactive) and the GI50 (HCT-15) was > 100 µM. The GI50 (LOX IMVI) was < 0.01 µM (active), the GI50 (SNB-19) was > 100 µM (inactive) and the GI50 (SNB-75) was > 100 µM (inactive). For the same compound, the GI50 (UACC-62) was > 100 µM (inactive), the GI50 (HL-60) was > 100 µM (inactive) and the GI50 (HCC 2998) was > 100 µM (inactive). The GI50 (NCI-H460) was > 100 µM (inactive), the GI50 (NCI-H23) was > 100 µM (inactive) and the GI50 (RPMI-8226) was > 100 µM (inactive). The GI50 (RXF 393) was > 100 µM (inactive).
